# Measured values: ChEMBL document CHEMBL1201862, “PubChem BioAssay data set” (2004)
# Calls of active or inactive are those of the source.
# Assays:
# [1] = Luminescence Cell-Based Dose Confirmation HTS to Identify Activators of 5'UTR Stem-Loop Driven Alpha-Synuclein mRNA Translation in H4 Neuroglioblastoma Cells. [Related pubchem assays: 1829 (Project Summary), 1814 (Primary HTS)]; type: functional
# [2] = Luminescence Cell-Based Dose Response HTS to Identify Activators of Luciferase Translation or Activity in H4 […] Cells. [Related pubchem assays: 1829 (Project Summary), 1814 (Primary HTS)]; type: functional
# [3] = tested on: H4; test: Luminescence Cell-Based Dose Response HTS to Identify Activators of 5'UTR Stem-Loop Driven Prion Protein mRNA Translation in H4 Neuroglioblastoma Cells. [Related pubchem assays: 1829 (Project Summary), 1814 (Primary HTS)]; type: functional; settings: Homo sapiens
# [4] = target: FAD-linked sulfhydryl oxidase ALR (Homo sapiens, UniProt P55789); test: ALR-catalysed DTT oxidation blockers – biochemical, H2O2 detection, luminescence, cherry-pick, dose response (AID 493248)
# Sequence of FAD-linked sulfhydryl oxidase ALR (P55789 whole entry): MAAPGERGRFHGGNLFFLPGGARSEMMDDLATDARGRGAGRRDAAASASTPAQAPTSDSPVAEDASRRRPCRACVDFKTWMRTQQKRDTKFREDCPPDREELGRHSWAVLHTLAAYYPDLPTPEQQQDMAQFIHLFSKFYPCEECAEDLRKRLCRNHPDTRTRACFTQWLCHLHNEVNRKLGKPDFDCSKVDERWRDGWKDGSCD
# [5] = luciferase reporter signal suppression in cells – H4 neuroglioma cells, luminescence, dose response (AID 1990); type: functional, cell-based
# [6] = Luminescence Cell-Based Dose Response HTS to Identify Inhibitors of 5'UTR Stem-Loop Driven Prion Protein mRNA Translation in H4 Neuroglioblastoma Cells. [Related pubchem assays: 1827 (Project Summary), 1813 (Primary HTS)]; type: functional
# [7] = alpha-synuclein stem-loop luciferase translation blockers – H4 neuroglioma cells, luminescence, confirmation (AID 1988); type: functional, cell-based
# [8] = Luminescence Cell-Based Dose Retest to Confirm Inhibitors of Cancer Stem Cells. [Related pubchem assays (depositor defined):AID2717, AID2721]; type: functional; settings: Homo sapiens
# [9] = target: T1, Heat shock factor protein 1 (Mus musculus, UniProt P38532); test: enhancement of HSF1-driven luciferase signal – cell-based, NIH3T3, luminescence, dose retest, confirmation (AID 435004); type: functional;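 also: stress induced by proteasome inhibitor MG132 added 30 min after compound; luciferase reporter driven by HSF1 response element in NIH3T3 cells; actives raise luminescence as potentiators of the MG132 stress response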
# T1 sequence (P38532 whole entry): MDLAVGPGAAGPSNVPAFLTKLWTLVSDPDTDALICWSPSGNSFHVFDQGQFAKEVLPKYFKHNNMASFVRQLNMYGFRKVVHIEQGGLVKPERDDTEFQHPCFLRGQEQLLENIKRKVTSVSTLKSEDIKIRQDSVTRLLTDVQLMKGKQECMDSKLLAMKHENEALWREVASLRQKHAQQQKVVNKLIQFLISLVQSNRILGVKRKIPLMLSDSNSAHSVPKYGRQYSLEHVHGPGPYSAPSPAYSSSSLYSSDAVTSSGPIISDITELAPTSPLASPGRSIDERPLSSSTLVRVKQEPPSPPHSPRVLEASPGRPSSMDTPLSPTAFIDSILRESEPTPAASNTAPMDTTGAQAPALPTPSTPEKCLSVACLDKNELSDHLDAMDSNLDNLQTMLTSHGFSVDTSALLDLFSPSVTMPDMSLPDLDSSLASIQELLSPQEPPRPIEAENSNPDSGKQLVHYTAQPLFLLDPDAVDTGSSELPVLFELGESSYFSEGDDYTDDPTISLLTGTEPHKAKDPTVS
# [10] = tested on: BJ; test: BJ-TERT fibroblast viability loss – cell-based, RAS-independent, luminescence, dose response (AID 1933); type: functional; settings: Homo sapiens
# [11] = tested on: BJ; test: cells; type: functional, cell-based; settings: Homo sapiens
# [12] = tested on: BJ; test: BJ-TERT-LT-ST fibroblast viability loss – cell-based, RAS-independent, luminescence, dose response (AID 1935); type: functional; settings: Homo sapiens;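 also: BJ fibroblasts immortalized with TERT plus LT and ST oncogenes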
# [13] = DRD fibroblast viability loss – cell-based, non-viral oncogenic, luminescence, dose response (AID 1934); type: functional; settings: Homo sapiens
# [14] = target: Cytochrome P450 2C19 (Homo sapiens, UniProt P33261); test: Cytochrome panel assay with activity outcomes. Panel member name: p450-cyp2c19 Compounds with AC50 equal or less than 10 uM are considered active; type: functional; settings: read-out: AC50
# Sequence of Cytochrome P450 2C19 (P33261 whole entry): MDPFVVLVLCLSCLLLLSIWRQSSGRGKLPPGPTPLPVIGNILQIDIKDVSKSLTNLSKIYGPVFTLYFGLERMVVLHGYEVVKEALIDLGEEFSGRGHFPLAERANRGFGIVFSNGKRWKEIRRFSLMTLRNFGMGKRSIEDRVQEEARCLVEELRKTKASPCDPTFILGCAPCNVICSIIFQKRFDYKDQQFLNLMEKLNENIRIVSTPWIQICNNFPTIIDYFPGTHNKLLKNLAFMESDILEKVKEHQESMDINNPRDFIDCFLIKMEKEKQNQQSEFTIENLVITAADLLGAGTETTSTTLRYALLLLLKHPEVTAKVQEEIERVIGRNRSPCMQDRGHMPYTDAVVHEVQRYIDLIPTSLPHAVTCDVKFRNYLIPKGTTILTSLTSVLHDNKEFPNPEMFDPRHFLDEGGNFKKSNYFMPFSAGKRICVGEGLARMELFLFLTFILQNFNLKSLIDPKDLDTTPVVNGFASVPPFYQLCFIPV
# [15] = tested on: Streptococcus sp. 'group A'; test: Streptococcus pyogenes SK(-)GAS viability under kanamycin – luminescence, BacTiterGlo, confirmation, counter-screen for streptokinase expression inhibitor project, dose response (AID 1900); type: functional, organism-based
# [16] = tested on: Streptococcus; test: GAS UMAA2166 growth inhibition – luminescence, BacTiterGlo, counter-screen for streptokinase expression inhibitor project, dose response (AID 1915); type: functional, organism-based;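 also: potency for reduction of bacterial viability or growth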
# [17] = tested on: INS1; test: INS-1E survival protection against cytokine death – cell-based, luminescence, retest, dose response (AID 449756); type: functional; settings: Rattus norvegicus;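 also: cell death triggered by IL-1 beta plus TNF-alpha plus IFN-gamma mixture; protective hits raise ATP signal compared with cytokine alone wells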
# [18] = target: Paired box protein Pax-8 (Homo sapiens, UniProt Q06710); test: PAX8 transcriptional activity inhibition in RMG-I – RMG-I cells, luciferase, cherry-pick, dose response (AID 687027); type: functional, cell-based;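 also: luciferase reporter driven by Pax8 target thyroperoxidase promoter measured by SteadyGlo luminescence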
# Sequence of Paired box protein Pax-8 (Q06710 whole entry): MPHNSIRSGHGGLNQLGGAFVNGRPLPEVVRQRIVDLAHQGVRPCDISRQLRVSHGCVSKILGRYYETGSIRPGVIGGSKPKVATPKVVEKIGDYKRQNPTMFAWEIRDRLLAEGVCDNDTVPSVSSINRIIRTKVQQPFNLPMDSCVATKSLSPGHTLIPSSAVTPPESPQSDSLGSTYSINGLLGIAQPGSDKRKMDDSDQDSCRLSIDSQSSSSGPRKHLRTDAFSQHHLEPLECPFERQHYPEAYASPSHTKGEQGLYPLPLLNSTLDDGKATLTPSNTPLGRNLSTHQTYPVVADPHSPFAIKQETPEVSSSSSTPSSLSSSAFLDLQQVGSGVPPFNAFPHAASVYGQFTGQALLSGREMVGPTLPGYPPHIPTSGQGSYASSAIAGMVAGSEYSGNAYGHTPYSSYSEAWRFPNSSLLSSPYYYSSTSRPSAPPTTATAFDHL
# [19] = Trypanosoma cruzi growth suppression in host cells – NIH3T3 host cells, beta-gal luminescence, confirmation (AID 2044); type: functional, cell-based;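 also: intracellular parasites grown in NIH/3T3 mouse fibroblasts as host cells; luminescent beta-galactosidase reporter signal from transgenic T. cruzi replicating inside host cells; inhibitors lower the luminescence signal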
# [20] = NIH3T3 cell viability loss – ATP luminescence, mouse fibroblasts, counter-screen, dose response (AID 2010); type: functional, cell-based;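 also: cells exposed to compound for about 90 hours before reading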
# [21] = target: Cytochrome P450 2D6 (Homo sapiens, UniProt P10635);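 also: CYP2D6 member of a cytochrome P450 panel assay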
# Sequence of Cytochrome P450 2D6 (P10635 whole entry): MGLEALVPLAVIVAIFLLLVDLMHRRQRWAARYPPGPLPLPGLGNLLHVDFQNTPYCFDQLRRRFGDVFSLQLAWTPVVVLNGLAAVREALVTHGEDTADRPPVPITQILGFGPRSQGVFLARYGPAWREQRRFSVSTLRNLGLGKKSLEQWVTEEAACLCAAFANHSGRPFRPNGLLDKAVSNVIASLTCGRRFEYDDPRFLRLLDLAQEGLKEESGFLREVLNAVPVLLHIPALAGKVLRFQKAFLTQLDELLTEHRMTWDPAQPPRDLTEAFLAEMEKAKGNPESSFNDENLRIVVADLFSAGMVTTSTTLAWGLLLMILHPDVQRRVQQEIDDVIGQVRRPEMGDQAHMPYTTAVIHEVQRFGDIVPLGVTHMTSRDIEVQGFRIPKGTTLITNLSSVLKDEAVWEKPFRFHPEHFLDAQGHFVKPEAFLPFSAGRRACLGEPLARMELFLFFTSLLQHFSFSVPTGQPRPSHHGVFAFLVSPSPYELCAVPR
smiles,measurement,setting,value
CC1Oc2ccccc2C=C1/C=C1/SC(N2CCOCC2)=NC1=O (centres undefined),EC50,[1],7.43 µM (active)
same,EC50,[2],37.3 µM (active)
same,EC50,[3],10.9 µM (active)
Nc1ccccc1Sc1c[nH]c2ccccc12,AC50,[4],24.5 µM (active)
Cc1cc(C(=O)C(=O)O)c(C)n1-c1ccc(Cl)c(Cl)c1,AC50,[4],1.39 µM (active)
CC(Oc1cccc(Cl)c1)C(=O)Nc1ccc([N+](=O)[O-])cn1 (centres undefined),EC50,[5],21.4 µM (active)
same,EC50,[6],> 120 µM (not active)
same,EC50,[7],59.8 µM (active)
CCC(C)n1ncn(-c2ccc(N3CCN(c4ccc(O)cc4)CC3)cc2)c1=O (centres undefined),EC50,[5],> 120 µM (not active)
same,EC50,[6],19.7 µM (active)
same,AC50,[8],1.2 µM (active)
CC(Sc1nnc2ccccn12)C(N)=O (centres undefined),EC50,[9],> 260 µM (inactive)
O=C(CC1Sc2ccccc2NC1=O)c1ccc(Br)cc1 (centres undefined),EC50,[1],5.6 µM (active)
same,EC50,[2],7.15 µM (active)
same,EC50,[3],36.6 µM (active)
Cc1ccc(S(=O)(=O)NC(=O)Nc2ccc(C)cn2)cc1,EC50,[9],> 260 µM (inactive)
Cc1sc2c(c1C)CN(CCN1CCOCC1)CN2C(=O)c1ccccc1,EC50,[1],19.9 µM (active)
same,EC50,[2],13.7 µM (active)
same,EC50,[3],> 120 µM (not active)
O=C(c1cccc(F)c1)N1CCN=C1SCc1cccnc1,AC50,[4],0.123 µM (active)
Cc1cc(NC(=O)c2cccc(Br)c2)[nH]n1,EC50,[1],2.47 µM (active)
same,EC50,[2],54.5 µM (active)
CC(Oc1ccc(F)cc1Br)c1nc(O)c2ccccc2n1 (centres undefined),EC50,[9],74.4 µM (active)
CC1(C)CN(c2cccc(Br)c2)C1=O,EC50,[9],> 260 µM (inactive)
CC(=O)Nc1ccccc1OC(C)C(=O)N1CC(C)CC(C)C1 (centres undefined),EC50,[9],> 260 µM (inactive)
Cc1ccc(C(=O)c2cc([N+](=O)[O-])ccc2N2CC(C)OC(C)C2)cc1 (centres undefined),EC50,[10],13.8 µM (active)
same,EC50,[11],31.6 µM (active)
same,EC50,[12],16.7 µM (active)
same,EC50,[13],12.5 µM (active)
N/C(=C\C(=O)c1cc(Cl)ccc1O)C(Cl)(Cl)Cl,EC50,[10],3.92 µM (active)
same,EC50,[11],5.09 µM (active)
same,EC50,[12],7.09 µM (active)
same,EC50,[13],5.12 µM (active)
Cc1ccc2c(c1)C(N1CCCC1=O)CC(c1ccco1)N2 (centres undefined),EC50,[1],14.6 µM (active)
same,EC50,[2],16.1 µM (active)
same,EC50,[3],> 120 µM (not active)
CCC1CCCCN1C(=O)COC(=O)c1cc2ccccc2cc1O (centres undefined),EC50,[9],> 260 µM (inactive)
Cc1ccccc1NCCC(=O)Nc1ccc(Cl)cc1,AC50,[4],4.88 µM (active)
O=C(c1ccccc1F)N1CCN=C1SCc1cccnc1,AC50,[4],0.552 µM (active)
CN(C)S(=O)(=O)Oc1ccsc1C(=O)Nc1ccccc1Cl,EC50,[5],> 120 µM (not active)
same,EC50,[6],> 120 µM (not active)
same,EC50,[7],15.7 µM (active)
COc1ccccc1N1CCN(C(=O)Cn2nc(C(F)(F)F)c3c2CCC3)CC1,EC50,[5],> 120 µM (not active)
same,EC50,[6],> 120 µM (not active)
same,EC50,[7],> 120 µM (not active)
O=C(COC(=O)/C=C/c1ccc(Br)o1)NCCCN1CCCC1=O,EC50,[9],> 260 µM (inactive)
O=C(CC1C=Cc2ccccc2N1C(=O)c1ccccc1)c1ccccc1 (centres undefined),EC50,[9],> 260 µM (inactive)
c1ccc(CCc2nc(-c3ccccc3)no2)cc1,EC50,[1],56.8 µM (active)
same,EC50,[2],51.8 µM (active)
same,EC50,[3],6.54 µM (active)
same,AC50,[14],0.501 µM (inconclusive)
CCCCN1C(=O)/C(=C/c2c[nH]nc2-c2ccccc2)SC1=S,EC50,[9],> 260 µM (inactive)
COc1ccc(S(=O)(=O)Cc2ccc(C(=O)N3CCN(c4cccc(C)c4C)CC3)o2)cc1,EC50,[10],> 150 µM (not active)
same,EC50,[11],> 150 µM (not active)
same,EC50,[12],> 75 µM (inconclusive)
same,EC50,[13],20.4 µM (active)
O=C(NCc1csc(-c2ccccc2)n1)c1cc(F)cc2c1OCOC2,EC50,[1],14.9 µM (active)
same,EC50,[2],13.1 µM (active)
same,EC50,[3],15.5 µM (active)
Cc1ccc(NCC(=O)N=Nc2c(O)[nH]c3ccc([N+](=O)[O-])cc23)cc1,EC50,[1],24.6 µM (active)
same,EC50,[2],0.255 µM (active)
same,EC50,[3],0.303 µM (active)
CCO/C(O)=C1\C(C)=Nc2sc(C(=O)c3ccc(C)cc3)c(N)c2C1c1ccc(C(=O)OC)cc1 (centres undefined),EC50,[5],> 120 µM (not active)
same,EC50,[6],> 120 µM (not active)
same,EC50,[7],> 120 µM (not active)
CCOC(=O)C1(Cc2cccc(OC)c2)CCCN(C(=O)CCc2cccnc2)C1 (centres undefined),EC50,[1],15.2 µM (active)
same,EC50,[2],12.6 µM (active)
same,EC50,[3],> 120 µM (not active)
Cc1ccc(C(=O)O/N=C(\N)Cc2cccc3ccccc23)cc1,EC50,[9],> 260 µM (inactive)
Cc1cccc(C(=O)NNC(=O)c2ccc(Cl)cc2)c1O,EC50,[1],23.3 µM (active)
same,EC50,[2],7.11 µM (active)
same,EC50,[3],98.9 µM (active)
COc1ccc(F)cc1S(=O)(=O)Nc1ccc2c(c1)OCO2,EC50,[9],> 260 µM (inactive)
COc1cnn(-c2cc(Oc3ccc(C)cc3)ncn2)c(=O)c1Cl,EC50,[9],> 260 µM (inactive)
CC(=O)Nc1ccc(NC2CCCCC2NS(=O)(=O)c2ccccc2)cc1 (centres undefined),AC50,[4],0.736 µM (active)
Cc1nc2ccccc2c(=O)n1CCc1ccc(O)cc1,AC50,[4],3.66 µM (active)
O=C(COc1ccccc1-c1ccccc1)N/N=C/c1ccc2ccccc2c1,EC50,[15],4.87 µM (active)
same,EC50,[10],0.364 µM (active)
same,EC50,[11],0.568 µM (active)
same,EC50,[12],0.472 µM (active)
same,EC50,[13],0.475 µM (active)
same,EC50,[16],2.41 µM (active)
same,AC50,[8],0.258 µM (active)
same,AC50,[17],9.14 µM (active)
same,AC50,[18],2.1 µM (active)
C/C(=N\OC(=O)NC1CCCCC1)c1sc(-c2ccccc2)nc1C,EC50,[1],22 µM (active)
same,EC50,[2],0.673 µM (active)
same,EC50,[3],> 120 µM (inconclusive)
same,EC50,[19],2.05 µM (active)
same,EC50,[20],> 60 µM (not active)
same,AC50,[21],28.2 µM (inconclusive)
COc1cccc2cc(/C(=N/O)c3ccc(Br)cc3)oc12,EC50,[5],14.6 µM (active)
same,EC50,[6],18.6 µM (active)
same,EC50,[7],12.8 µM (active)
